{
  "source": "patent US9243036B2",
  "about": "“Anti-microbial activity of synthetic peptides” (THE UNITED STATES OF AMERICA, as represented by the …, priority 2012, dated 2016)",
  "assay_type_in_all_cases": "cell-based",
  "key": {"E. coli [1]": {"system": "E. coli", "experiment": "Membrane permeability by PI and SYTO9 uptake (LIVE/DEAD BACLIGHT)", "settings": "SYTO9 and PI staining", "protocol": "(§1) The effects of EC5 on the membrane integrity of E. coli and P. aeruginosa cells were assessed using the LIVE/DEAD BACLIGHT™ kit (Invitrogen, Oregon) according to the manufacturer's protocol. Membrane integrity of the cells after the addition of different concentrations of peptide EC5 was measured using fluorescence micro plate reader (BioTek Instruments, Winooski, Vt.). Experiments were done in triplicates. PMB was used as a positive control.\n(§2) The membrane permeabilizing activity of EC5 was also studied using the SYTO9 and PI staining method. SYTO9 stain labels both live and dead bacteria when alone, but propidium iodide stains only cells with damaged membranes, reducing the level of green fluorescent SYTO9 when both the dyes are present. […] The ratio of green versus red fluorescence can be calculated as a measure of live bacteria. […] Polymyxin B, an AMP with a net charge of +5 with membrane permeabilizing activity was used as positive control."}, "P. aeruginosa [2]": {"system": "P. aeruginosa", "experiment": "Membrane permeability by PI and SYTO9 uptake (LIVE/DEAD BACLIGHT)", "settings": "SYTO9 and PI staining", "protocol": "as §1, §2"}, "B. cereus [3]": {"system": "B. cereus", "experiment": "Anti-bacterial activity in spiked plasma", "settings": "even at 50 μg/ml", "protocol": "(§3) The anti-bacterial activity of the peptide in the presence of homologous plasma and platelets were assessed. Platelet Concentrates (PCs) in bags were obtained and stored at room temperature as described earlier (Mohan, K. V. et al., (2010) Transfusion 50, 166-173). Plasma was isolated from the PC bag by collecting 25 ml of PCs and subjecting the sample to a low speed centrifugation step to separate PLT-rich plasma from plasma. For assays log phase cultures of bacteria grown in Luria-Bertani (LB) broth were centrifuged at 3000×g and suspended in 1×PBS pH7.4. Bacterial titers were estimated by measuring the optical density (OD) and microscopy. Approximately 10^5 CFU/ml of each bacterial strain was spiked into 0.1 ml of plasma or platelets and incubated with peptide at concentrations ranging from 50 to 0 μg/ml. Incubation was carried out at room temperature for 2 h on a shaker. At the end of 2-h exposure period, a fixed volume of the suspension was plated on NA plates, and incubating at 37° C. for 18 to 24 h. Bactericidal activity was measured by log-reduction by viable bacteria."}, "S. aureus [4]": {"system": "S. aureus", "experiment": "Anti-bacterial activity in spiked plasma", "settings": "even at 50 μg/ml", "protocol": "as §3"}, "S. epidermidis [5]": {"system": "S. epidermidis", "experiment": "Anti-bacterial activity in spiked plasma", "settings": "even at 50 μg/ml", "protocol": "as §3"}, "E. coli [6]": {"system": "E. coli", "experiment": "Anti-bacterial activity in spiked plasma", "settings": "2 h", "protocol": "as §3"}, "P. aeruginosa [7]": {"system": "P. aeruginosa", "experiment": "Anti-bacterial activity in spiked plasma", "settings": "2 h", "protocol": "as §3"}, "K pneumoniae [8]": {"system": "K pneumoniae", "experiment": "Anti-bacterial activity in spiked plasma", "settings": "2 h", "protocol": "as §3"}, "E. coli [9]": {"system": "E. coli", "protocol": "(§4) In vitro anti-bacterial activity of EC5. The test microorganisms mentioned earlier in the experimental procedures were used to evaluate the bactericidal activity of EC5 peptide. The minimum inhibitory concentrations (MICs) of the peptide were determined by standard dilution assay as recommended by Clinical and Laboratory Standard Institutes (CLSI) guidelines (Azad, M. A., et al., (2011) Antimicrob. Agents Chemother. 55, 2137-2145). Bacteria were grown to mid-logarithmic phase in cation-supplemented Mueller-Hinton broth (MHB) (Becton Dickinson, Sparks, Md.) on an orbital shaker (37° C.) and diluted to a 0.5 McFarland standard to a final volume of 1 ml. Decreasing concentrations of the peptide were incubated with the microorganisms. Results were recorded by visual inspection after 24 h of incubation at 37° C. Assay was repeated three separate times to ensure reproducibility. […] EC5 concentrations 0x, 0.5x, 1x, and 2×MIC were incubated with logarithmic phase of bacteria of approximately 10^5 CFU/ml in an orbital shaker for 48 h at 37° C. Samples were drawn and plated on NA plates. Polymyxin B was used as a positive control and peptide with no anti-bacterial activity from our previous studies was used as a negative control."}, "P. aeruginosa [10]": {"system": "P. aeruginosa", "protocol": "as §4"}, "[11]": {"system": "chicken red blood cells (ch-RBCs)", "protocol": "The ability of EC5 to induce hemolysis of chicken red blood cells (ch-RBCs) was assessed as previously described (Pathak, S. and Chauhan, V. S. (2011) Antimicrob. Agents Chemother. 55, 2178-2188). Red blood cells were harvested and washed with phosphate-buffered saline (PBS). 1% (vol/vol) suspension was made with PBS. 100 μl and 50 μl of this RBC suspension were transferred to 96-well microtiter plates. Two-fold serial dilutions of the peptide samples were prepared and added to the RBCs. The reaction mixture was incubated at 37° C. for 24 h in microtiter plates. Results were visually determined.\nThe hemolytic activity of EC5 against chRBCs was determined as a measure of peptide toxicity toward higher eukaryotic cells (Yount, N. Y., et al., (2011) PLoS. One. 6, e26727; Tachi, T., et al., Biochemistry 41, 10723-10731). MHC is the maximal peptide concentration that produces no hemolysis after 24 h of incubation at 37° C."}, "B. cereus [12]": {"system": "B. cereus", "experiment": "Anti-bacterial activity in spiked platelets", "settings": "even at high concentrations", "protocol": "as §3"}, "K pneumoniae [13]": {"system": "K pneumoniae", "experiment": "Anti-bacterial activity in spiked platelets", "settings": "2 h", "protocol": "as §3"}, "E. coli [14]": {"system": "E. coli", "experiment": "2 h incubation of mid-logarithmic cultures with peptide, CFU on NA plates", "settings": "peptide 12.5, 25 and 50 μg/ml, inoculum 10^5 CFU/ml", "protocol": "(§5) Mid-logarithmic phase cultures of bacteria with an inoculum of 10^5 CFU/ml were incubated with peptide concentrations ranging from 0 to 50 μg/ml in a shaker incubator for 2 h following which the samples were plated on NA agar plates and CFU determined."}, "P. aeruginosa [15]": {"system": "P. aeruginosa", "experiment": "2 h incubation of mid-logarithmic cultures with peptide, CFU on NA plates", "settings": "peptide 12.5, 25 and 50 μg/ml, inoculum 10^5 CFU/ml", "protocol": "as §5"}, "Gram-positive strains": {"system": "Gram-positive strains", "experiment": "MIC by standard dilution assay (CLSI)", "protocol": "as §4"}, "B. cereus [16]": {"system": "B. cereus", "experiment": "MIC by standard dilution assay (CLSI)", "protocol": "as §4"}, "S. aureus [17]": {"system": "S. aureus", "experiment": "MIC by standard dilution assay (CLSI)", "protocol": "as §4"}, "S. epidermidis [18]": {"system": "S. epidermidis", "experiment": "MIC by standard dilution assay (CLSI)", "protocol": "as §4"}},
  "note": "Like-named read-outs stand apart in the source and are kept apart here. Residues, ends and D or L forms follow the SMILES beside them.",
  "data": [
    {"smiles": "CC[C@H](C)[C@H](NC(=O)[C@H](CCCCN)NC(=O)[C@H](CCCNC(=N)N)NC(=O)[C@H](Cc1ccccc1)NC(=O)[C@H](CC(C)C)NC(=O)[C@H](CC(C)C)NC(=O)[C@@H](N)CCCNC(=N)N)C(=O)N[C@@H](CCCNC(=N)N)C(=O)N[C@@H](CCCNC(=N)N)C(=O)N[C@@H](CC(C)C)C(=O)N[C@@H](CCCCN)C(=O)N[C@@H](CCCNC(=N)N)C(=O)O", "note": "[EC5, RLLFRKIRRLKR] (H-RLLFRKIRRLKR-OH; N-terminus and C-terminus assumed)", "values": [
      {"measurement": "concentration showing maximum permeability of cells", "setting": "E. coli [1]", "value": 6.25, "unit": "µg/mL"},
      {"measurement": "concentration showing maximum permeability of cells", "setting": "P. aeruginosa [2]", "value": 12.5, "unit": "µg/mL"},
      {"measurement": "reduction of B. cereus in plasma", "setting": "B. cereus [3]", "value": "failed to cause a significant reduction"},
      {"measurement": "reduction of S. aureus in plasma", "setting": "S. aureus [4]", "value": "failed to cause a significant reduction"},
      {"measurement": "reduction of S. epidermidis in plasma", "setting": "S. epidermidis [5]", "value": "failed to cause a significant reduction"},
      {"measurement": "reduction of E. coli in plasma", "setting": "E. coli [6]; EC5 12.5 μg/ml", "value": 3.5, "unit": "log10"},
      {"measurement": "reduction of E. coli in plasma", "setting": "E. coli [6]; EC5 25 μg/ml", "value": 4.5, "unit": "log10"},
      {"measurement": "bactericidal activity in homologous plasma, in words", "setting": "E. coli [6]; EC5 50 μg/ml", "value": "inhibited"},
      {"measurement": "reduction of E. coli in plasma", "setting": "E. coli [6]; EC5 50 μg/ml", "value": "around 5 log10 CFU/ml"},
      {"measurement": "reduction of P. aeruginosa in plasma", "setting": "P. aeruginosa [7]; EC5 12.5 μg/ml", "value": "~3", "unit": "log10 CFU/ml"},
      {"measurement": "reduction of P. aeruginosa in plasma", "setting": "P. aeruginosa [7]; EC5 25 μg/ml", "value": "around 4 log10 CFU/ml"},
      {"measurement": "bactericidal activity in homologous plasma, in words", "setting": "P. aeruginosa [7]; EC5 50 μg/ml", "value": "inhibited"},
      {"measurement": "reduction of P. aeruginosa in plasma", "setting": "P. aeruginosa [7]; EC5 50 μg/ml", "value": "around 5 log10 CFU/ml"},
      {"measurement": "reduction of K pneumoniae in plasma", "setting": "K pneumoniae [8]; EC5 25 μg/ml", "value": "around 1.5 log10"},
      {"measurement": "reduction of K pneumoniae in plasma", "setting": "K pneumoniae [8]; EC5 50 μg/ml", "value": "around 2.5 log10"},
      {"measurement": "MIC", "setting": "E. coli [9]", "value": 8, "unit": "µg/mL"},
      {"measurement": "Minimum Bactericidal Concentration (MBC)", "setting": "E. coli [9]", "value": 8, "unit": "µg/mL"},
      {"measurement": "MIC", "setting": "P. aeruginosa [10]", "value": "16 to 32", "unit": "µg/mL"},
      {"measurement": "Minimum Bactericidal Concentration (MBC)", "setting": "P. aeruginosa [10]", "value": 8, "unit": "µg/mL"},
      {"measurement": "MIC", "setting": "P. aeruginosa [10]; P. aeruginosa ATCC 27853", "value": 8, "unit": "µg/mL"},
      {"measurement": "MIC", "setting": "P. aeruginosa [10]; P. aeruginosa, strain not named", "value": 8, "unit": "µg/mL"},
      {"measurement": "therapeutic index (MIC versus concentrations inducing hemolysis)", "setting": "[11]", "value": "favorable"},
      {"measurement": "reduction of B. cereus in platelets", "setting": "B. cereus [12]", "value": "No significant reduction"},
      {"measurement": "reduction of K pneumoniae in platelets", "setting": "K pneumoniae [13]; EC5 12.5 μg/ml", "value": 1, "unit": "log10CFU/m"},
      {"measurement": "reduction of K pneumoniae in platelets", "setting": "K pneumoniae [13]; EC5 25 μg/ml", "value": 1.5, "unit": "log10CFU/m"},
      {"measurement": "reduction of K pneumoniae in platelets", "setting": "K pneumoniae [13]; EC5 50 μg/ml", "value": 2.5, "unit": "log10CFU/m"},
      {"measurement": "reduction of E. coli", "setting": "E. coli [14]", "value": 5, "unit": "log10 CFU/ml"},
      {"measurement": "reduction of P. aeruginosa", "setting": "P. aeruginosa [15]", "value": 5, "unit": "log10 CFU/ml"},
      {"measurement": "activity against Gram-positive strains", "setting": "Gram-positive strains", "value": "no activity"},
      {"measurement": "activity against B. cereus", "setting": "B. cereus [16]", "value": "not active"},
      {"measurement": "activity against S. aureus", "setting": "S. aureus [17]", "value": "not active"},
      {"measurement": "activity against S. epidermidis", "setting": "S. epidermidis [18]", "value": "not active"}
    ]}
  ]
}
